Experimental data taken from PubChem BioAssay AID2060882 (Molecular Pharmacology Branch, DTP, NCI, 2025).

Test system: 898857-211-R-J1-PDC complex spheroids, growth % test/control
Assay: Anticancer human tumor 898857-211-R-J1-PDC patient-derived melanoma cell line growth inhibition [RAS]
Conditions: for IC50: curve of first compound; for viability, T/C: stronger effect = lower value
Outline: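 Agents were tested in combination matrices in half-log decrements from a top concentration at or near clinical Cmax (10 microM if undetermined). Targets were multi-cell spheroids of tumour lines plus HUVEC and MSC stromal cells.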
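Also: spheroids exposed to compound for seven days before readout.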
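For viability, T/C in this document: 100% = DMSO vehicle control wells.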

SMILES: CC1(C)CCC(Nc2ncc(C(F)(F)F)c(-c3c[nH]c4c(P(C)(C)=O)c(C#N)ccc34)n2)CN1 (centres undefined) + CCn1c(-c2cc(N3CCN(C)CC3)cnc2C(C)OC)c2c3cc(ccc31)-c1csc(n1)CC(NC(=O)C1CC1C)C(=O)N1CCCC(N1)C(=O)OCC(C)(C)C2
- IC50 (second compound 0.000949 µM): 2.87 nM
- IC50 (second compound 0.003 µM): 2.98 nM
- IC50 (second compound 0.00949 µM): 3.56 nM
- IC50 (second compound 0.03 µM): 2.5 nM
- IC50 (second compound 0.0949 µM): 3.54 nM
- IC50 (second compound 0.3 µM): 2.87 nM
- viability, T/C (second compound 0.000949 µM, first compound 0.000949 µM): 104%
- viability, T/C (second compound 0.000949 µM, first compound 0.003 µM): 47.7%
- viability, T/C (second compound 0.000949 µM, first compound 0.00949 µM): 24.2%
- viability, T/C (second compound 0.000949 µM, first compound 0.03 µM): 16.2%
- viability, T/C (second compound 0.000949 µM, first compound 0.0949 µM): 17.3%
- viability, T/C (second compound 0.000949 µM, first compound 0.3 µM): 15.1%
- viability, T/C (second compound 0.003 µM, first compound 0.000949 µM): 79.3%
- viability, T/C (second compound 0.003 µM, first compound 0.003 µM): 49.8%
- viability, T/C (second compound 0.003 µM, first compound 0.00949 µM): 25.2%
- viability, T/C (second compound 0.003 µM, first compound 0.03 µM): 18.4%
- viability, T/C (second compound 0.003 µM, first compound 0.0949 µM): 16%
- viability, T/C (second compound 0.003 µM, first compound 0.3 µM): 17.5%
- viability, T/C (second compound 0.00949 µM, first compound 0.000949 µM): 83.1%
- viability, T/C (second compound 0.00949 µM, first compound 0.003 µM): 54.7%
- viability, T/C (second compound 0.00949 µM, first compound 0.00949 µM): 23.2%
- viability, T/C (second compound 0.00949 µM, first compound 0.03 µM): 15.7%
- viability, T/C (second compound 0.00949 µM, first compound 0.0949 µM): 17.8%
- viability, T/C (second compound 0.00949 µM, first compound 0.3 µM): 17.8%
- viability, T/C (second compound 0.03 µM, first compound 0.000949 µM): 83.3%
- viability, T/C (second compound 0.03 µM, first compound 0.003 µM): 43.7%
- viability, T/C (second compound 0.03 µM, first compound 0.00949 µM): 23.4%
- viability, T/C (second compound 0.03 µM, first compound 0.03 µM): 19.8%
- viability, T/C (second compound 0.03 µM, first compound 0.0949 µM): 17.5%
- viability, T/C (second compound 0.03 µM, first compound 0.3 µM): 18.3%
- viability, T/C (second compound 0.0949 µM, first compound 0.000949 µM): 81.3%
- viability, T/C (second compound 0.0949 µM, first compound 0.003 µM): 54%
- viability, T/C (second compound 0.0949 µM, first compound 0.00949 µM): 26.2%
- viability, T/C (second compound 0.0949 µM, first compound 0.03 µM): 19.4%
- viability, T/C (second compound 0.0949 µM, first compound 0.0949 µM): 18.1%
- viability, T/C (second compound 0.0949 µM, first compound 0.3 µM): 16.6%
- viability, T/C (second compound 0.3 µM, first compound 0.000949 µM): 78.5%
- viability, T/C (second compound 0.3 µM, first compound 0.003 µM): 48.9%
- viability, T/C (second compound 0.3 µM, first compound 0.00949 µM): 23.7%
- viability, T/C (second compound 0.3 µM, first compound 0.03 µM): 18.4%
- viability, T/C (second compound 0.3 µM, first compound 0.0949 µM): 16%
- viability, T/C (second compound 0.3 µM, first compound 0.3 µM): 17.2%

SMILES: CCC(CC)c1cc(NC2CCC(N)C2)n2nccc2n1 (centres undefined) + CCn1c(-c2cccnc2C(C)OC)c2c3cc(ccc31)N1CCOC(CC(NC(=O)C(C(C)C)N(C)C(=O)C3(F)CCN(C(=O)C#CC(C)(C)N(C)C)CC3)C(=O)N3CCCC(N3)C(=O)OCC(C)(C)C2)C1
- IC50 (second compound 0.000949 µM): 1120 nM
- IC50 (second compound 0.003 µM): 1090 nM
- IC50 (second compound 0.00949 µM): 968 nM
- IC50 (second compound 0.03 µM): 1040 nM
- IC50 (second compound 0.0949 µM): 748 nM
- IC50 (second compound 0.3 µM): 415 nM
- viability, T/C (second compound 0.000949 µM, first compound 0.0316 µM): 124%
- viability, T/C (second compound 0.000949 µM, first compound 0.1 µM): 105%
- viability, T/C (second compound 0.000949 µM, first compound 0.316 µM): 101%
- viability, T/C (second compound 0.000949 µM, first compound 1 µM): 57.4%
- viability, T/C (second compound 0.000949 µM, first compound 3.16 µM): 1.07%
- viability, T/C (second compound 0.000949 µM, first compound 10 µM): 0.23%
- viability, T/C (second compound 0.003 µM, first compound 0.0316 µM): 109%
- viability, T/C (second compound 0.003 µM, first compound 0.1 µM): 106%
- viability, T/C (second compound 0.003 µM, first compound 0.316 µM): 103%
- viability, T/C (second compound 0.003 µM, first compound 1 µM): 54%
- viability, T/C (second compound 0.003 µM, first compound 3.16 µM): 0.85%
- viability, T/C (second compound 0.003 µM, first compound 10 µM): 0.65%
- viability, T/C (second compound 0.00949 µM, first compound 0.0316 µM): 103%
- viability, T/C (second compound 0.00949 µM, first compound 0.1 µM): 100%
- viability, T/C (second compound 0.00949 µM, first compound 0.316 µM): 101%
- viability, T/C (second compound 0.00949 µM, first compound 1 µM): 48.5%
- viability, T/C (second compound 0.00949 µM, first compound 3.16 µM): 1.54%
- viability, T/C (second compound 0.00949 µM, first compound 10 µM): 0.27%
- viability, T/C (second compound 0.03 µM, first compound 0.0316 µM): 108%
- viability, T/C (second compound 0.03 µM, first compound 0.1 µM): 109%
- viability, T/C (second compound 0.03 µM, first compound 0.316 µM): 102%
- viability, T/C (second compound 0.03 µM, first compound 1 µM): 51.9%
- viability, T/C (second compound 0.03 µM, first compound 3.16 µM): 0.7%
- viability, T/C (second compound 0.03 µM, first compound 10 µM): 0.63%
- viability, T/C (second compound 0.0949 µM, first compound 0.0316 µM): 94.9%
- viability, T/C (second compound 0.0949 µM, first compound 0.1 µM): 105%
- viability, T/C (second compound 0.0949 µM, first compound 0.316 µM): 80.4%
- viability, T/C (second compound 0.0949 µM, first compound 1 µM): 40.9%
- viability, T/C (second compound 0.0949 µM, first compound 3.16 µM): 0.82%
- viability, T/C (second compound 0.0949 µM, first compound 10 µM): 0.45%
- viability, T/C (second compound 0.3 µM, first compound 0.0316 µM): 83.5%
- viability, T/C (second compound 0.3 µM, first compound 0.1 µM): 72.2%
- viability, T/C (second compound 0.3 µM, first compound 0.316 µM): 59.9%
- viability, T/C (second compound 0.3 µM, first compound 1 µM): 22.7%
- viability, T/C (second compound 0.3 µM, first compound 3.16 µM): 1.27%
- viability, T/C (second compound 0.3 µM, first compound 10 µM): 0.27%
